Values of other authors, collected in PMC2615486 (Chemistry & biology, 2008).

Tests used:
[1] = ref Hyre, D.E., Le Trong, I., et al. 2006
[2] = test system: avidin; details: ref Green, N.M. 1970

Molecule	association rate for biotin [1]	dissociation constant for avidin, weaker than that of biotin [2]
streptavidin: wild-type streptavidin as described in the literature	~ 1 × 10^8 M^−1s^−1	–
C[C@@H]1NC(=O)N[C@@H]1CCCCCC(=O)O [desthiobiotin]	–	10^2–10^4 fold
